Assay results reported in patent publication US9089499B2, “Para-coumaric acid or para-hydroxycinnamic acid derivatives and their use in cosmetic or dermatological compositions” (BASF Beauty Care Solutions France S.A.S., priority 2005, dated 2015).

Tests used:
[1] = Antiradical activity, acellular DPPH model; details: DPPH 30 minutes, absorbance 520 nm
Procedure: The antiradical activity of the derivatives derived from the syntheses described above was evaluated in an in vitro acellular model using DPPH.
1,1-Diphenyl 2-picryihydrazyl, on account of its paramagnetic structure, can accept an electron or a hydrogen radical to become a stable diamagnetic molecule. This free radical, which is purple coloured in ethanol, has a strong absorption band at 520 nm.
The addition of a compound that provides electrons results in a decolorization of the 1,1-diphenyl 2-picrylhydrazyl that is proportional to the number of electrons taken up by the radical, which may be monitored by measuring the absorbance at 520 nm.
DPPH is incubated for 30 minutes in the presence of the derivatives described above, tested at a concentration of 10^−5M, or alone for the control. At the end of the incubation, the antiradical activity of the above derivatives is evaluated by measuring the absorbance of the solution at 520 nm.
The antiradical activity of each test product is calculated according to the formula, as a percentage: 100−((OD520 in the presence of the test compound/OD520 in the absence of compound)×100)

eye of rabbits = experiment: Ocular irritation in rabbits; format: in vivo; details: 10% in a 0.5% xanthan gel; pure, 0.1 ml single instillation, rabbit eye
Procedure: The preparations described above were instilled pure, in a single application, at a rate of 0.1 ml, into the eye of 3 rabbits according to the method recommenced by the OCDE Directive No. 405 of 24 February 1987 concerning the study of the “acute irritant/corrosive effect on the eyes”.

COc1cc(/C=C/C(=O)NCCc2ccc(O)c(O)c2)ccc1O [Example 1, N-trans-feruloyldopamine]
Antiradical activity, Mean 10^−5 M [1]: 60.01%
Ocular irritation classification (eye of rabbits): non-irritant to the eyes
